{
  "source": "PubChem BioAssay (NCI)",
  "experiment_in_all_cases": "growth of human tumour cells (NCI), 48 h",
  "key": {"M14 melanoma": {"tested_on": "M14 melanoma"}, "RPMI-8226 leukemia": {"tested_on": "RPMI-8226 leukemia"}, "MOLT-4 leukemia": {"tested_on": "MOLT-4 leukemia"}, "HCC-2998 colon": {"tested_on": "HCC-2998 colon"}, "SN12C renal": {"tested_on": "SN12C renal"}, "HL-60(TB) leukemia": {"tested_on": "HL-60(TB) leukemia"}, "NCI-H522 lung": {"tested_on": "NCI-H522 lung"}, "EKVX NSCLC": {"tested_on": "EKVX NSCLC"}, "HOP-92 NSCLC": {"tested_on": "HOP-92 NSCLC"}, "A549 NSCLC": {"tested_on": "A549 NSCLC"}, "SF-295 CNS": {"tested_on": "SF-295 CNS"}, "MALME-3M melanoma": {"tested_on": "MALME-3M melanoma"}, "ACHN renal": {"tested_on": "ACHN renal"}, "RXF 393 renal": {"tested_on": "RXF 393 renal"}, "CAKI-1 renal": {"tested_on": "CAKI-1 renal"}, "COLO 205 colon": {"tested_on": "COLO 205 colon"}, "SW-620 colon": {"tested_on": "SW-620 colon"}, "DU-145 prostate": {"tested_on": "DU-145 prostate"}, "SK-OV-3 ovarian": {"tested_on": "SK-OV-3 ovarian"}, "U251 CNS": {"tested_on": "U251 CNS"}, "MDA-MB-435": {"tested_on": "MDA-MB-435"}, "HT29 colon": {"tested_on": "HT29 colon"}, "IGROV1 ovarian": {"tested_on": "IGROV1 ovarian"}, "OVCAR-8 ovarian": {"tested_on": "OVCAR-8 ovarian"}, "T-47D breast": {"tested_on": "T-47D breast"}, "OVCAR-3 ovarian": {"tested_on": "OVCAR-3 ovarian"}, "OVCAR-4 ovarian": {"tested_on": "OVCAR-4 ovarian"}, "BT-549 breast": {"tested_on": "BT-549 breast"}},
  "note": "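In this assay, cells in 96-well plates receive the compound at five concentrations for 48 hours. Endpoints are linearly interpolated between the surrounding concentrations. Here, GI50 denotes the concentration required for 50% inhibition of growth. The concentration for full growth arrest is given as TGI.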",
  "data": [
    {"smiles": "CO[C@H]1CSS[C@@H]1Cn1nc(-c2ccc(Oc3ccccc3)cc2)c2c(N)ncnc21", "values": [
      {"measurement": "GI50", "setting": "M14 melanoma", "value": 1.86, "unit": "µM"},
      {"measurement": "TGI", "setting": "M14 melanoma", "value": 3.78, "unit": "µM"},
      {"measurement": "GI50", "setting": "RPMI-8226 leukemia", "value": 13.5, "unit": "µM"},
      {"measurement": "TGI", "setting": "RPMI-8226 leukemia", "value": 51.4, "unit": "µM"},
      {"measurement": "GI50", "setting": "MOLT-4 leukemia", "value": 1.84, "unit": "µM"},
      {"measurement": "TGI", "setting": "MOLT-4 leukemia", "value": 4.93, "unit": "µM"},
      {"measurement": "GI50", "setting": "HCC-2998 colon", "value": 4.31, "unit": "µM"},
      {"measurement": "TGI", "setting": "HCC-2998 colon", "value": 18, "unit": "µM"},
      {"measurement": "GI50", "setting": "SN12C renal", "value": 6.52, "unit": "µM"},
      {"measurement": "TGI", "setting": "SN12C renal", "value": 27.3, "unit": "µM"},
      {"measurement": "GI50", "setting": "HL-60(TB) leukemia", "value": 4.16, "unit": "µM"},
      {"measurement": "TGI", "setting": "HL-60(TB) leukemia", "value": 17.6, "unit": "µM"},
      {"measurement": "GI50", "setting": "NCI-H522 lung", "value": 11, "unit": "µM"},
      {"measurement": "TGI", "setting": "NCI-H522 lung", "value": 27.2, "unit": "µM"},
      {"measurement": "GI50", "setting": "EKVX NSCLC", "value": 4.87, "unit": "µM"},
      {"measurement": "TGI", "setting": "EKVX NSCLC", "value": 30.1, "unit": "µM"},
      {"measurement": "GI50", "setting": "HOP-92 NSCLC", "value": 5.03, "unit": "µM"},
      {"measurement": "TGI", "setting": "HOP-92 NSCLC", "value": 29.3, "unit": "µM"},
      {"measurement": "GI50", "setting": "A549 NSCLC", "value": 4.37, "unit": "µM"},
      {"measurement": "TGI", "setting": "A549 NSCLC", "value": "> 100", "unit": "µM"},
      {"measurement": "GI50", "setting": "SF-295 CNS", "value": 20.6, "unit": "µM"},
      {"measurement": "TGI", "setting": "SF-295 CNS", "value": 63.4, "unit": "µM"},
      {"measurement": "GI50", "setting": "MALME-3M melanoma", "value": 9.3, "unit": "µM"},
      {"measurement": "TGI", "setting": "MALME-3M melanoma", "value": 23.1, "unit": "µM"},
      {"measurement": "GI50", "setting": "ACHN renal", "value": 4.5, "unit": "µM"},
      {"measurement": "TGI", "setting": "ACHN renal", "value": 37.3, "unit": "µM"},
      {"measurement": "GI50", "setting": "RXF 393 renal", "value": 6.13, "unit": "µM"},
      {"measurement": "TGI", "setting": "RXF 393 renal", "value": 25.3, "unit": "µM"},
      {"measurement": "GI50", "setting": "CAKI-1 renal", "value": 8.17, "unit": "µM"},
      {"measurement": "TGI", "setting": "CAKI-1 renal", "value": 74.7, "unit": "µM"},
      {"measurement": "GI50", "setting": "COLO 205 colon", "value": 11.3, "unit": "µM"},
      {"measurement": "TGI", "setting": "COLO 205 colon", "value": 24.7, "unit": "µM"},
      {"measurement": "GI50", "setting": "SW-620 colon", "value": 14.6, "unit": "µM"},
      {"measurement": "TGI", "setting": "SW-620 colon", "value": "> 100", "unit": "µM"},
      {"measurement": "GI50", "setting": "DU-145 prostate", "value": 13.7, "unit": "µM"},
      {"measurement": "TGI", "setting": "DU-145 prostate", "value": "> 100", "unit": "µM"},
      {"measurement": "GI50", "setting": "SK-OV-3 ovarian", "value": 2.38, "unit": "µM"},
      {"measurement": "TGI", "setting": "SK-OV-3 ovarian", "value": 7.36, "unit": "µM"},
      {"measurement": "GI50", "setting": "U251 CNS", "value": 6.89, "unit": "µM"},
      {"measurement": "TGI", "setting": "U251 CNS", "value": 55.2, "unit": "µM"},
      {"measurement": "GI50", "setting": "MDA-MB-435", "value": 2, "unit": "µM"},
      {"measurement": "TGI", "setting": "MDA-MB-435", "value": 4.28, "unit": "µM"},
      {"measurement": "GI50", "setting": "HT29 colon", "value": 4.28, "unit": "µM"},
      {"measurement": "TGI", "setting": "HT29 colon", "value": 18.1, "unit": "µM"},
      {"measurement": "GI50", "setting": "IGROV1 ovarian", "value": 8.69, "unit": "µM"},
      {"measurement": "TGI", "setting": "IGROV1 ovarian", "value": 35.3, "unit": "µM"},
      {"measurement": "GI50", "setting": "OVCAR-8 ovarian", "value": 7.26, "unit": "µM"},
      {"measurement": "TGI", "setting": "OVCAR-8 ovarian", "value": 53.7, "unit": "µM"},
      {"measurement": "GI50", "setting": "T-47D breast", "value": 2.81, "unit": "µM"},
      {"measurement": "TGI", "setting": "T-47D breast", "value": 20.8, "unit": "µM"},
      {"measurement": "GI50", "setting": "OVCAR-3 ovarian", "value": 7.82, "unit": "µM"},
      {"measurement": "TGI", "setting": "OVCAR-3 ovarian", "value": 30.5, "unit": "µM"},
      {"measurement": "GI50", "setting": "OVCAR-4 ovarian", "value": 18.4, "unit": "µM"},
      {"measurement": "TGI", "setting": "OVCAR-4 ovarian", "value": "> 100", "unit": "µM"},
      {"measurement": "GI50", "setting": "BT-549 breast", "value": 18.4, "unit": "µM"},
      {"measurement": "TGI", "setting": "BT-549 breast", "value": 34.6, "unit": "µM"}
    ]}
  ]
}
